From US11865098B1, “Methods and compositions for treating excessive sleepiness” (Axsome Malta Ltd., priority 2017, dated 2024)

Test system: adult patients with OSA and ES
Experiment: MWT, 12-week placebo-controlled parallel study in OSA
Type: in vivo, human
Conditions: for MWT mean sleep latency increase from baseline >=5 minutes, subjects / MWT mean sleep latency increase from baseline >=10 minutes, subjects / MWT mean sleep latency increase from baseline >=15 minutes, subjects / MWT mean sleep latency increase from baseline >=20 minutes, subjects / MWT mean sleep latency increase from baseline >=25 minutes, subjects / MWT mean sleep latency increase from baseline >=30 minutes, subjects: mITT
Protocol: The MWT is an objective test used to measure how alert a subject is during the day. The test consists of four sleep trials with two hours in between the trials. The first trial is performed 1.5-3 hours after the subject's normal wake-up time. Sensors are placed on the head, face, and chin to detect when the subject is asleep and awake during the test. The subject sits quietly in bed with his or her back and head supported by a pillow and is asked to sit still and look straight ahead while trying to stay awake as long as possible. Each trial lasts 40 minutes or until the subject is asleep for 90 seconds. Between trials, the subject stays out of bed and occupies himself or herself to remain awake. Falling asleep in an average of less than eight minutes is considered abnormal. About 40-60% of subjects with normal sleep stay awake for the entire 40 minutes of all four trials.
The study was a 12-week, double-blind, placebo-controlled, parallel design study as described in greater detail in Example 1 (Schweitzer et al., Sleep 40(Abstract Supplement):A237. Abstract 0641 (2017)). Patients were randomized (1:1:2:2:2) to APC 37.5, 75, 150, 300 mg, or placebo for 12 weeks, and were stratified by adherence or non-adherence with primary OSA therapy (adherent definition was use for ≥4 hours per night on >70% of nights). Two patient-reported measures were included as secondary efficacy outcomes to evaluate the effects of APC on functional status and work productivity and activity impairment at baseline and weeks 1, 4, 8, and 12. The Functional Outcomes of Sleep questionnaire short version (FOSQ-10) (Chasens et al., Sleep 32(7):915 (2009)) evaluated the effects of ES on functioning. The Work Productivity and Activity Impairment questionnaire for Specific Health Problems (WPAI:SHP) (Reilly et al., Pharmacoeconomics 4(5):353 (1993); Reilly, Work Productivity and Activity Impairment Questionnaire: Specific Health Problem V2.0 (WPAI: SHP). www.reillyassociates.net/WPAI_SHP) evaluated work productivity impairment among employed patients and overall activity impairment outside of work among all patients for the past 7 days. Four outcomes are available from the WPAI:SHP: Absenteeism (percent work time missed due to health); Presenteeism (percent impairment while working due to health); Percent overall work impairment (calculated from absenteeism and presenteeism); and Percent activity impairment due to health. The FOSQ-10 was evaluated as change over time compared with placebo (least squares (LS) mean); the 4 WPAI outcomes were evaluated at week 12 compared to placebo. Efficacy analyses were based on the modified intent-to-treat population (mITT) and there was no multiplicity adjustment for the FOSQ-10 or WPAI:SHP. Safety and tolerability were assessed based on treatment-emergent adverse events (TEAEs), vital signs, electrocardiogram test, physical exams, Columbia-Suicide Severity Rating Scale, and laboratory tests in the safety population.
This was a 12-week, double-blind, placebo-controlled, parallel-design study. Patients were randomized (1:1:2:2:2) to APC 37.5 mg, 75 mg, 150 mg, or 300 mg, or placebo for 12 weeks, and were stratified by adherence or nonadherence with primary OSA therapy.

SMILES: NC(=O)OC[C@H](N)Cc1ccccc1 [JZP-110, (R)-2-amino-3-phenylpropyl carbamate]
- Co-primary MWT endpoint (37.5, 75, 150, 300 mg, week 12): met at all doses
- MWT mean sleep latency increase from baseline >=5 minutes, subjects (Week 1, 37.5 mg): 4 (22.2) n (%)
- MWT mean sleep latency increase from baseline >=10 minutes, subjects (Week 1, 37.5 mg): 2 (11.1) n (%)
- MWT mean sleep latency increase from baseline >=15 minutes, subjects (Week 1, 37.5 mg): 2 (11.1) n (%)
- MWT mean sleep latency increase from baseline >=20 minutes, subjects (Week 1, 37.5 mg): 2 (11.1) n (%)
- MWT mean sleep latency increase from baseline >=25 minutes, subjects (Week 1, 37.5 mg): 0 n (%)
- MWT mean sleep latency increase from baseline >=30 minutes, subjects (Week 1, 37.5 mg): 0 n (%)
- MWT mean sleep latency increase from baseline >=5 minutes, subjects (Week 1, 75 mg): 11 (64.7) n (%)
- MWT mean sleep latency increase from baseline >=10 minutes, subjects (Week 1, 75 mg): 6 (35.3) n (%)
- MWT mean sleep latency increase from baseline >=15 minutes, subjects (Week 1, 75 mg): 4 (23.5) n (%)
- MWT mean sleep latency increase from baseline >=20 minutes, subjects (Week 1, 75 mg): 1 (5.9) n (%)
- MWT mean sleep latency increase from baseline >=25 minutes, subjects (Week 1, 75 mg): 1 (5.9) n (%)
- MWT mean sleep latency increase from baseline >=30 minutes, subjects (Week 1, 75 mg): 0 n (%)
- MWT mean sleep latency increase from baseline >=5 minutes, subjects (Week 1, 150 mg): 27 (81.8) n (%)
- MWT mean sleep latency increase from baseline >=10 minutes, subjects (Week 1, 150 mg): 22 (66.7) n (%)
- MWT mean sleep latency increase from baseline >=15 minutes, subjects (Week 1, 150 mg): 13 (39.4) n (%)
- MWT mean sleep latency increase from baseline >=20 minutes, subjects (Week 1, 150 mg): 9 (27.3) n (%)
- MWT mean sleep latency increase from baseline >=25 minutes, subjects (Week 1, 150 mg): 4 (12.1) n (%)
- MWT mean sleep latency increase from baseline >=30 minutes, subjects (Week 1, 150 mg): 2 (6.1) n (%)
- MWT mean sleep latency increase from baseline >=5 minutes, subjects (Week 1, 300 mg): 28 (75.7) n (%)
- MWT mean sleep latency increase from baseline >=10 minutes, subjects (Week 1, 300 mg): 22 (59.5) n (%)
- MWT mean sleep latency increase from baseline >=15 minutes, subjects (Week 1, 300 mg): 19 (51.4) n (%)
- MWT mean sleep latency increase from baseline >=20 minutes, subjects (Week 1, 300 mg): 14 (37.8) n (%)
- MWT mean sleep latency increase from baseline >=25 minutes, subjects (Week 1, 300 mg): 7 (18.9) n (%)
- MWT mean sleep latency increase from baseline >=30 minutes, subjects (Week 1, 300 mg): 4 (10.8) n (%)
- MWT mean sleep latency increase from baseline >=5 minutes, subjects (Week 1, Combined JZP-110 doses): 70 (66.7) n (%)
- MWT mean sleep latency increase from baseline >=10 minutes, subjects (Week 1, Combined JZP-110 doses): 52 (49.5) n (%)
- MWT mean sleep latency increase from baseline >=15 minutes, subjects (Week 1, Combined JZP-110 doses): 38 (36.2) n (%)
- MWT mean sleep latency increase from baseline >=20 minutes, subjects (Week 1, Combined JZP-110 doses): 26 (24.8) n (%)
- MWT mean sleep latency increase from baseline >=25 minutes, subjects (Week 1, Combined JZP-110 doses): 12 (11.4) n (%)
- MWT mean sleep latency increase from baseline >=30 minutes, subjects (Week 1, Combined JZP-110 doses): 6 (5.7) n (%)
- MWT mean sleep latency increase from baseline >=5 minutes, subjects (Week 4, 37.5 mg): 21 (42.0) n (%)
- MWT mean sleep latency increase from baseline >=10 minutes, subjects (Week 4, 37.5 mg): 16 (32.0) n (%)
- MWT mean sleep latency increase from baseline >=15 minutes, subjects (Week 4, 37.5 mg): 7 (14.0) n (%)
- MWT mean sleep latency increase from baseline >=20 minutes, subjects (Week 4, 37.5 mg): 4 (8.0) n (%)
- MWT mean sleep latency increase from baseline >=25 minutes, subjects (Week 4, 37.5 mg): 0 n (%)
- MWT mean sleep latency increase from baseline >=30 minutes, subjects (Week 4, 37.5 mg): 0 n (%)
- MWT mean sleep latency increase from baseline >=5 minutes, subjects (Week 4, 75 mg): 34 (61.8) n (%)
- MWT mean sleep latency increase from baseline >=10 minutes, subjects (Week 4, 75 mg): 25 (45.5) n (%)
- MWT mean sleep latency increase from baseline >=15 minutes, subjects (Week 4, 75 mg): 11 (20.0) n (%)
- MWT mean sleep latency increase from baseline >=20 minutes, subjects (Week 4, 75 mg): 5 (9.1) n (%)
- MWT mean sleep latency increase from baseline >=25 minutes, subjects (Week 4, 75 mg): 2 (3.6) n (%)
- MWT mean sleep latency increase from baseline >=30 minutes, subjects (Week 4, 75 mg): 1 (1.8) n (%)
- MWT mean sleep latency increase from baseline >=5 minutes, subjects (Week 4, 150 mg): 83 (76.9) n (%)
- MWT mean sleep latency increase from baseline >=10 minutes, subjects (Week 4, 150 mg): 54 (50.0) n (%)
- MWT mean sleep latency increase from baseline >=15 minutes, subjects (Week 4, 150 mg): 40 (37.0) n (%)
